Substitutions are numbered along the chain they refer to.
What was measured:
[1] = target: T1, SIRT5 wild type (Homo sapiens, UniProt Q9NXA8); test: SIRT5 wild type desuccinylation reaction, trypsin coupled fluorescence assay with Ac-SucLys-AMC; type: biochemical; details: for IC50: SIRT5 desuccinylation
T1 construct: SIRT1 (193–747) and SIRT5 (51–301) were cloned into the pLIC-His expression vector; His tag (pLIC-His vector); made in house; host or cells: E. coli BL21(DE3) Star
T1 sequence (Q9NXA8 51-301): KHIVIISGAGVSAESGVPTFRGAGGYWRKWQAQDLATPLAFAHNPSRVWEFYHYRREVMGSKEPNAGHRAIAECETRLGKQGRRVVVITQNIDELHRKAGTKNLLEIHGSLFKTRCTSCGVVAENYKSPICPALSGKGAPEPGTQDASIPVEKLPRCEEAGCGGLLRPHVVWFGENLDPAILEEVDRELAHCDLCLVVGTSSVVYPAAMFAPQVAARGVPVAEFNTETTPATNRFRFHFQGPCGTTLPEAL
Description: (§1) The sirtuin catalyzed deacetylase and desuccinylase reactions were measured via the trypsin coupled assay system as described by Madsen et al. […] Since trypsin was used as a coupling enzyme, its concentration was optimized to ensure the emergence of minimal or negligible lag-phase prior to the onset of the steady state phase. […] The steady state rates of the enzyme catalyzed reactions were derived from the time dependent changes in the fluorescence signal, and the data were analyzed by the ternary complex kinetic mechanism (Eq 4) via Grafit 4 software.
(§2) The steady-state kinetic data were fitted globally by the competitive, mixed, and noncompetitive inhibition models using the DYNAFIT software based on the rapid-equilibrium approximation. All the parameters were allowed to float except for the enzyme concentration. The software utilizes several model-discrimination criteria, including the second order Akaike Information Criterion (AIC), so that the best model out of the three different candidates could be identified.
(§3) Other reaction conditions were the same as described above. The data were fitted by Eq 5 by Grafit 4.0.

[2] = target: T2, SIRT5 Y102A (Homo sapiens, UniProt Q9NXA8, Y102A); test: SIRT5 Y102A desuccinylation reaction, trypsin coupled assay with Ac-SucLys-AMC; type: biochemical
T2 construct: SIRT1 (193–747) and SIRT5 (51–301) were cloned into the pLIC-His expression vector; His tag (pLIC-His vector); made in house; host or cells: E. coli BL21(DE3) Star
T2 sequence (Q9NXA8 51-301 Y102A): T1 sequence (Q9NXA8 51-301) with Y52A
Description: as §1, §2, §3

[3] = target: T3, SIRT1 (Homo sapiens, UniProt Q96EB6); test: SIRT1 desuccinylation reaction, trypsin coupled assay with Ac-SucLys-AMC; type: biochemical; details: succinyl substrate
T3 construct: SIRT1 (193–747) and SIRT5 (51–301) were cloned into the pLIC-His expression vector; His tag (pLIC-His vector); made in house; host or cells: E. coli BL21(DE3) Star
T3 sequence (Q96EB6 193-747): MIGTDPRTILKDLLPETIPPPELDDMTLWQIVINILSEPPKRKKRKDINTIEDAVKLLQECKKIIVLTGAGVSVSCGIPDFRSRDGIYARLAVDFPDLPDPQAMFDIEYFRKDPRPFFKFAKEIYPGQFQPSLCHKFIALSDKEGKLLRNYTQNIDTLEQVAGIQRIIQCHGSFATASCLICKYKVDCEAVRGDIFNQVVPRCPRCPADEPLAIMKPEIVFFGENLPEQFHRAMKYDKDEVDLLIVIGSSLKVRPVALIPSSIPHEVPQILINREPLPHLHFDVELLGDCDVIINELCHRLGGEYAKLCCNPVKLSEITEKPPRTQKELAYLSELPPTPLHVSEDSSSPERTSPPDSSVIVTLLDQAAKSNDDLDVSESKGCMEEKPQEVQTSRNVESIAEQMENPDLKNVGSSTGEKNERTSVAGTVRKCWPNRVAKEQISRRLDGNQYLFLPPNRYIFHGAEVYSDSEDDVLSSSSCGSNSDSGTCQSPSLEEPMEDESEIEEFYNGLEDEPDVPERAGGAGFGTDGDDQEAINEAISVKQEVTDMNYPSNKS
Description: (§4) The sirtuin catalyzed deacetylase and desuccinylase reactions were measured via the trypsin coupled assay system as described by Madsen et al. The enzyme reactions were carried out at 25°C in 50 mM Tris-HCl assay buffer, pH 8.0, containing 137 mM NaCl, 2.7 mM KCl, 1 mM MgCl2, and 1 mg/mL bovine serum albumin. Since trypsin was used as a coupling enzyme, its concentration was optimized to ensure the emergence of minimal or negligible lag-phase prior to the onset of the steady state phase. The bi-substrate kinetic experiments were performed by varying the concentrations of NAD^+ (from 100 to 500 μM) and Ac-SucLys-AMC or Fluor-de-lys® substrates (from 100 μM to 1200 μM) using 0.8 μM trypsin as the coupling enzyme. The steady state rates of the enzyme catalyzed reactions were derived from the time dependent changes in the fluorescence signal, and the data were analyzed by the ternary complex kinetic mechanism (Eq 4) via Grafit 4 software.

[4] = target: T1, SIRT5 wild type; test: SIRT5 wild type deacetylation reaction, trypsin coupled fluorescence assay with Fluor-de-lys; type: biochemical; details: 50 μM EX527; substrate not stated in the sentence (method: 100 μM Fluor-de-lys, 500 μM NAD^+)
Description: as §4
(§5) The steady-state kinetic data were fitted globally by the competitive, mixed, and noncompetitive inhibition models using the DYNAFIT software based on the rapid-equilibrium approximation. All the parameters were allowed to float except for the enzyme concentration. […]

[5] = target: T2, SIRT5 Y102A; test: SIRT5 Y102A deacetylation reaction, trypsin coupled assay with Fluor-de-lys; type: biochemical
Description: as §1, §2, §3

[6] = target: T4, SIRT5 R105I (Homo sapiens, UniProt Q9NXA8, R105I); test: SIRT5 R105I deacetylation reaction, trypsin coupled assay with Fluor-de-lys; type: biochemical
T4 construct: SIRT1 (193–747) and SIRT5 (51–301) were cloned into the pLIC-His expression vector; His tag (pLIC-His vector); made in house; host or cells: E. coli BL21(DE3) Star
T4 sequence (Q9NXA8 51-301 R105I): T1 sequence (Q9NXA8 51-301) with R55I
Description: as §1, §2, §3

[7] = target: T4, SIRT5 R105I; test: SIRT5 R105I desuccinylation reaction, trypsin coupled assay with Ac-SucLys-AMC; type: biochemical
Description: as §4, §5

[8] = target: T5, SIRT5 Y102A/R105I (Homo sapiens, UniProt Q9NXA8, R105I/Y102A); test: SIRT5 Y102A/R105I deacetylation reaction, trypsin coupled assay with Fluor-de-lys; type: biochemical
T5 construct: SIRT1 (193–747) and SIRT5 (51–301) were cloned into the pLIC-His expression vector; His tag (pLIC-His vector); made in house; host or cells: E. coli BL21(DE3) Star
T5 sequence (Q9NXA8 51-301 Y102A/R105I): T1 sequence (Q9NXA8 51-301) with Y52A, R55I
Description: as §1, §2, §3

[9] = target: T5, SIRT5 Y102A/R105I; test: Isothermal titration calorimetry, binding of EX527 to SIRT5 Y102A/R105I; details: ITC
Description: (§6) Isothermal titration calorimetric experiment was performed in duplicates on a VP-ITC device (Microcal Inc., Northampton, MA). Prior to the titration experiment, both enzyme and inhibitor were thoroughly degassed under vacuum. The sample cell was filled with 1.8 mL (effective volume = 1.4 mL) of 20 μM Y102A/R105I mutant SIRT5 and 0 or 10 mM NAD^+ in 50 mM HEPES buffer, pH 7.5, containing 100 mM NaCl, 10% glycerol and 1 mM TCEP. […] The data were analyzed by the ITC data analysis module of Origin Software using the single-site binding model as described by Wiseman et al. All the parameters were allowed to vary during the curve-fitting. […] The binding free energy (ΔG°) and the entropic (ΔS°) changes were calculated by Eqs 6 and 7, respectively ΔG°=−RTlnKa (6) ΔS°=ΔH°−ΔG°/T (7)
The latter value translates to the ΔG° of binding as being equal to −7.3 ± 0.1 kcal/mol. Given the ΔH° and ΔG° values, the TΔS° was calculated to be 2.03 kcal/mol.

[10] = target: T6, wild type SIRT5 (Homo sapiens, UniProt Q9NXA8); test: Isothermal titration calorimetry, binding of EX527 to wild type SIRT5; details: ITC, either in the absence or the presence of NAD^+ (10 mM)
T6 construct: SIRT1 (193–747) and SIRT5 (51–301) were cloned into the pLIC-His expression vector; His tag (pLIC-His vector); made in house; host or cells: E. coli BL21(DE3) Star
T6 sequence (Q9NXA8 51-301): T1 sequence (Q9NXA8 51-301)

[11] = system: SIRT5; set-up: method as in PMID 22583019; details: same succinylated substrate, fixed substrate concentration; read-out: Km,NAD (apparent); cited from earlier work
[12] = target: T3, SIRT1; test: SIRT1 deacetylation reaction, trypsin coupled assay with Fluor-de-lys; type: biochemical; details: for IC50: SIRT1 deacetylation
Description: as §1, §2, §3

[13] = target: T7, SIRT5-substrate complex (Homo sapiens, UniProt Q9NXA8); test: Isothermal titration calorimetry, binding of nicotinamide to SIRT5-substrate complex; details: ITC, 20 μM SIRT5 in the presence of 1 mM Ac-Suclys-AMC
T7 construct: SIRT1 (193–747) and SIRT5 (51–301) were cloned into the pLIC-His expression vector; His tag (pLIC-His vector); made in house; host or cells: E. coli BL21(DE3) Star
T7 sequence (Q9NXA8 51-301): T1 sequence (Q9NXA8 51-301)
Description: as §6, with “vacuum.” for “vacuum. The sample cell was filled with 1.8 mL (effective volume = 1.4 mL) of 20 μM Y102A/R105I mutant SIRT5 and 0 or 10 mM NAD^+ in 50 mM HEPES buffer, pH 7.5, containing 100 mM NaCl, 10% glycerol and 1 mM TCEP.”
(TIF) Click here for additional data file.

[14] = desuccinylation, succinyl substrate
[15] = deacetylation, acetylated substrate, at 800 μM nicotinamide
[16] = deacetylation, against NAD^+, 500 μM Fluo-de-lys, NAD^+ 200 to 1300 μM
[17] = deacetylation, against NAD^+, 100 μM Fluo-de-lys, NAD^+ 40 to 300 μM

CC(=O)N[C@@H](CCCCNC(=O)CCC(=O)O)C(=O)Nc1ccc2c(C)cc(=O)oc2c1 [Ac-SucLys-AMC]
kcat [1, 14]: 383.2 ± 38.3 ×10^−5 s^-1
Km ([1]; desuccinylation, succinyl substrate, 25°C, pH 8.0, read-out: Km,sub): 290 ± 29 µM
kcat [2, 14]: 27.4 ± 4.9 ×10^−5 s^-1
Km ([2]; desuccinylation, succinyl substrate, read-out: Km,sub): 300 ± 54 µM
desuccinylase activity [3]: no detectable desuccinylase activity

NC(=O)C1CCCc2c1[nH]c1ccc(Cl)cc21 (centres unmarked) [EX527, 6-chloro-2,3,4,9-tetrahydro-1H-carbazole-1-carboxamide]
inhibition by EX527 [4]: not inhibited
inhibition at 50 µM [5]: ~14%
inhibition by EX527 ([2]; 50 μM EX527, succinylated substrate): no inhibition
inhibition at 50 µM [6]: ~22%
inhibition at 50 µM [7]: ~22%
IC50 [8]: 0.0217 ± 0.001 mM
binding ([9]; in the absence of NAD^+): binds weakly
ΔH° ([9]; presence of 10 mM NAD^+, pH 7.5, 25°C): -5.3 ± 0.1 kcal/mol
stoichiometry n ([9]; presence of 10 mM NAD^+, pH 7.5, 25°C, single site binding model): 1.2
ΔG° of binding ([9]; presence of 10 mM NAD^+, calculated from Ka): -7.3 ± 0.1 kcal/mol
TΔS° ([9]; presence of 10 mM NAD^+, calculated from ΔH° and ΔG°): 2.03 kcal/mol
binding (heat signals) [10]: only miniscule heat signals

NC(=O)c1ccc[n+]([C@@H]2O[C@H](COP(=O)([O-])OP(=O)(O)OC[C@H]3O[C@@H](n4cnc5c(N)ncnc54)[C@H](O)[C@@H]3O)[C@@H](O)[C@H]2O)c1 [NAD, nicotinamide adenine dinucleotide]
Km [11]: 150 ± 45 µM

NC(=O)c1cccnc1 [Nicotinamide]
Inhibition Mode ([1]; desuccinylation, against NAD^+, 100 μM Ac-SucLys-AMC, NAD^+ 40 to 300 μM): Competitive
% inhibition [5, 15]: N/A, 36% inhibition at 800μM
inhibition at 800 µM [5, 15]: ~36%
Inhibition Mode ([2]; desuccinylation, against NAD^+, 500 μM Ac-SucLys-AMC, NAD^+ 70 to 800 μM): Competitive
inhibition at 800 µM [6]: 40%
Inhibition Mode [8, 16]: Mixed
Ki’ (mixed inhibition) [8, 16]: 0.2672 ± 0.0524 mM
Inhibition Mode [12, 17]: Mixed
Ki’ (mixed inhibition) [12, 17]: 0.3405 ± 0.1024 mM
Ka [13]: (2.5 ± 0.3) × 10^4 M^-1

NC(=O)c1ccncc1 [isonicotinamide]
IC50 ([1]; in the presence of 50 μM NAD^+): 11.1 ± 2.2 mM
IC50 ([1]; in the presence of 5 mM NAD^+): 17.1 ± 4 mM
IC50 ([12]; in the presence of 50 μM NAD^+): 7 ± 2.9 mM
IC50 ([12]; in the presence of 5 mM NAD^+): 8.9 ± 3.3 mM

— PMC4811591, “Role of the Substrate Specificity-Defining Residues of Human SIRT5 in Modulating the Structural Stability and Inhibitory Features of the Enzyme” (PLoS ONE, 2016)
